The record followed here is patent US10420758B2, “Indolinyl-sulfonamide inhibitors of tankyrase and methods of use thereof” (The Board of Regents of the University of Texas System, priority 2015, dated 2019).

Molecules are shown by their SMILES.

One series addresses TNKS1 (Homo sapiens, UniProt O95271). Nature of the series: PARP profiling, parsylation of immobilized histone. Conditions: IWR compounds 10 μM. Type of series: biochemical.
A further series has as its target TNKS2 (Homo sapiens, UniProt Q9H2K2). Nature of the series: PARP profiling, parsylation of immobilized histone. The series is classed as biochemical. Conditions: IWR compounds 10 μM.
In series [1] the target is T1, catalytic domain of human Tnks1 (Homo sapiens, UniProt O95271).
T1 construct: The catalytic domain of human Tnks1 (residues 1105-1313) was expressed; His6 (with TEV site) (N, cleaved yes); made in house; host or cells: E. coli BL21 (DE3)
Description: Crystal structures of IWR compound/Tnks1 complexes, binding pocket. The following applies: crystal structure, FIGS. 3A-3C. The protocol:
Protein Expression and Purification.
The catalytic domain of human Tnks1 (residues 1105-1313) was expressed by using a modified pET28 vector, which encodes an N-terminal His6-tag and a cleavage site for the Tobacco Etch Virus (TEV) protease. Protein expression was induced by 0.1 mM IPTG at 15° C. when the culture of the bacteria strain BL21 (DE3) transformed with the plasmid reached O.D. of 1.5. Cells were harvested 12 hrs after induction and lysed by Frenchpressing. The lysate was cleared by centrifugation at 15000 rpm for 1 hr. The protein was purified by Ni-NTA-based affinity chromatography and ion exchange chromatography. The N-terminal His6-tag was removed by overnight TEV protease treatment at 4° C. Purified protein was concentrated and stored in −80° C.
Crystallization, Data Collection and Structure Determination.
The purified Tnks1 catalytic domain at 5 mg/mL (0.22 mM) mixed with IWR-1 (the exo-form), IWR-3 and IWR-8 at 0.25 mM were subjected to crystallization trials by using sitting-drop 96-well plates. Following initial hits of crystallization, large crystals were obtained by hanging-drop vapor diffusion in conditions optimized based on the initial conditions. Crystals of the Tnks1/IWR-1 complex were grown at 20° C. in 0.1 M Bis-Tris (pH 5.3), 0.15 M MgCl2 and 20-23% PEG3350. […]

The subject of a further series is zebrafish. Nature of the series: Zebrafish caudal fin regeneration after chemical removal. The following applies: resected caudal fins, water containing compound for 7 d, then removal. Type of series: in vivo. An excerpt: Achieving transient repression of pathological Wnt response without incurring permanent damage to normal stem cell function is a key anticancer therapeutic goal.

TNKS2, sequence (Q9H2K2 whole entry, the tested form may be a part): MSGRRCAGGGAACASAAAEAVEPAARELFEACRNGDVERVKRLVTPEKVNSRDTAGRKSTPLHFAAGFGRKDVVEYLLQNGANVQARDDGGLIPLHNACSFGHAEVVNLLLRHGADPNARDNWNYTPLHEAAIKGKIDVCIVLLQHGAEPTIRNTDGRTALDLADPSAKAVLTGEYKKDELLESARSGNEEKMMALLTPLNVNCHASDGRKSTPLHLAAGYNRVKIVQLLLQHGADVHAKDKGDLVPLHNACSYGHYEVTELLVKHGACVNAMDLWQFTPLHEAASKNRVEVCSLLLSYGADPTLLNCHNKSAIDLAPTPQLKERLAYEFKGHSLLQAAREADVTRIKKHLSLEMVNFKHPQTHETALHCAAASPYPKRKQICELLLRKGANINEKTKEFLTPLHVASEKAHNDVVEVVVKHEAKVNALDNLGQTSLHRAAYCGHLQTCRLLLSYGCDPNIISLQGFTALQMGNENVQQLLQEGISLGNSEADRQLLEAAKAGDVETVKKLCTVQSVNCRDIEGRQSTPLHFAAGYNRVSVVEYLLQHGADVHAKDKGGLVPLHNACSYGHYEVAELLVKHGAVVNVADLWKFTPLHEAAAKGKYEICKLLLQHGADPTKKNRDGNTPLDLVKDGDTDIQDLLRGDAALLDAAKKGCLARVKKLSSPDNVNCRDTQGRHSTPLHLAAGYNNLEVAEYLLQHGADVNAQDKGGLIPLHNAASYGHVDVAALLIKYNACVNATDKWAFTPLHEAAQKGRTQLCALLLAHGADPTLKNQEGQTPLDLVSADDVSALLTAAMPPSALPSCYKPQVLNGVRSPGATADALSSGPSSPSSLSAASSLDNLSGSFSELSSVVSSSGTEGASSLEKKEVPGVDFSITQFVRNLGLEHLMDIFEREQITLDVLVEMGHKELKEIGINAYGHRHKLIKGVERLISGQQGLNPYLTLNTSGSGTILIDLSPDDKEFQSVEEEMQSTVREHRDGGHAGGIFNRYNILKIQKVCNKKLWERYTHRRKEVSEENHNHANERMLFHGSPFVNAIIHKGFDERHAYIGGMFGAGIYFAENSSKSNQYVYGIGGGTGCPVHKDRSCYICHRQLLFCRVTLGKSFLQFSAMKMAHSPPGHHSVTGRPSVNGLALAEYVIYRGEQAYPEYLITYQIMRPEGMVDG
T1 sequence (O95271 1105-1313): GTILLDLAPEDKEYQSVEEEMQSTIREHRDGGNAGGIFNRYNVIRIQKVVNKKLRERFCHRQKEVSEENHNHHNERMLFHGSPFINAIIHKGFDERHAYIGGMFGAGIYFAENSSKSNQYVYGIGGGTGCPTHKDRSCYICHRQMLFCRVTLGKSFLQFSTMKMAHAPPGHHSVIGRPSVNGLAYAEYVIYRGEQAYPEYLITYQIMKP
TNKS1, sequence (O95271 whole entry): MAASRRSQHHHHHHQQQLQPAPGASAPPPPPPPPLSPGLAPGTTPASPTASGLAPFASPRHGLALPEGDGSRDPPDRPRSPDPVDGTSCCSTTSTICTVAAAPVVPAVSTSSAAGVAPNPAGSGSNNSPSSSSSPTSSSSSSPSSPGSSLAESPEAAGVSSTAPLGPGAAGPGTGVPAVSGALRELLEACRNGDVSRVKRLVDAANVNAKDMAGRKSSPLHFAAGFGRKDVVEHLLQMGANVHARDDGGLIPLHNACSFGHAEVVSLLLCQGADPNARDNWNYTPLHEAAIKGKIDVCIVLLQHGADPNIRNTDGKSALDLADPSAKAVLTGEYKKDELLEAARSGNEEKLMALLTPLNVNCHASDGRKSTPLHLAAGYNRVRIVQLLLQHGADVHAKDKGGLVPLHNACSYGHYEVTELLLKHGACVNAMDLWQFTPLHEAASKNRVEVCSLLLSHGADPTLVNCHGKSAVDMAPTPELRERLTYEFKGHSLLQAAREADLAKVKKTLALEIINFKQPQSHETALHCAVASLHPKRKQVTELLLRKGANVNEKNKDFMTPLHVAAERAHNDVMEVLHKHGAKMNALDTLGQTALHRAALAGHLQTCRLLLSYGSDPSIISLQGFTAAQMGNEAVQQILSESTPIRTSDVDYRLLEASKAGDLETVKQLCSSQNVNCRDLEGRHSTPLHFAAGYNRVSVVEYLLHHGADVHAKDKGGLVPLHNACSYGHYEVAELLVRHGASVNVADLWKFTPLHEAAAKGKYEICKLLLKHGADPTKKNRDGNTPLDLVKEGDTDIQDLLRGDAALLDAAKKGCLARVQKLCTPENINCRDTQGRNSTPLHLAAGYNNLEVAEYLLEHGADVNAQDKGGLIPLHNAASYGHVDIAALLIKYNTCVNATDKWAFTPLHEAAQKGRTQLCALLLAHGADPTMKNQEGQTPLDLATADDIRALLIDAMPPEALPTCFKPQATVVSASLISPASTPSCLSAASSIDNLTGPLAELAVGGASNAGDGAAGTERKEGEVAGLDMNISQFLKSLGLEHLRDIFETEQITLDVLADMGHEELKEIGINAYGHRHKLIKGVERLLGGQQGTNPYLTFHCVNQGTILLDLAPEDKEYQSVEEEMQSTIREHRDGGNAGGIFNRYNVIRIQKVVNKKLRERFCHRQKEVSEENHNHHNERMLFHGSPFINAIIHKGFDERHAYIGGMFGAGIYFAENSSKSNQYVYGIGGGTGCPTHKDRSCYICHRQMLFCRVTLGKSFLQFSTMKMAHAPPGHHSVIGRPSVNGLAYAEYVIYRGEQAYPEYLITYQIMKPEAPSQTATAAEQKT

As to `CCN(C(=O)C1CCN(S(=O)(=O)c2cc3c(cc2Br)CCN3C(C)=O)CC1)c1cccc(C)c1` [IWR-8], the inhibition at 10 µM at TNKS1 and at TNKS2 was 99% in each case. Moreover, in series [1], the “binding pocket engaged in Tnks1” value is reported as “engage the AD pocket”.
Regarding `O=C(Nc1cccc2cccnc12)c1ccc(N2C(=O)[C@@H]3[C@H](C2=O)[C@@H]2C=C[C@H]3C2)cc1` [IWR-1], in the series on zebrafish, the “fin regeneration after chemically induced blockade” value is listed as “able to regenerate tissue to nearly normal levels after chemical removal”.
